From EP4567040A1, “CRYSTAL FORM OF FUSED TRICYCLIC DERIVATIVE AND PREPARATION METHOD” (Jiangsu Hengrui Pharmaceuticals Co., Ltd., priority 2022, dated 2024)

Key:
Assay type in all cases: physicochemical
[1] = Hygroscopicity study of free-state crystal forms (DVS); settings: for 0.0% RH-80.0% RH (hygroscopicity, mass change): DVS, 25 °C; for Crystal form: crystal form after DVS test
Protocol: Testing was performed using Surface Measurement Systems advantage 2, at 25 °C, with the humidity changing from 50% -95%-0%-95%-50%RH, in steps of 10%. The criterion was that each gradient mass change dM/dT is less than 0.002%, TMAX 360 min, two cycles.
Surface Measurement Systems intrinsic DVS was adopted. At 25 °C, the crystal forms were tested in a humidity range of 0%-95%, with increments of 10%. The criterion was that each gradient mass change dM/dT is less than 0.002%, TMAX 360 min, two cycles.

[2] = Influencing factor stability study of crystal forms; settings: for physical stability / chemical stability: 30-day influencing factor experiments; for chemical stability: high temperature and high humidity conditions
Protocol: Example 50. Influencing Factor Stability Study of Crystal Forms Free-state samples were spread out, left to stand in open flasks, and subjected to 30-day stability tests under light exposure (4500 Lux), high temperature (40 °C and 60 °C), and high humidity (RH 75% and RH 92.5%) conditions.

[3] = Long-term/accelerated stability of crystal forms; settings: for Purity%: sealed in aluminum foil bag; for Crystal form: after standing up to 6 months
Protocol: Free-state samples were sealed in aluminum foil bags and left to stand under 25 °C/60% RH and 40 °C/75% RH conditions to test their stability.

[4] = Light exposure (4500 Lux), 7 days, open flask
[5] = Light exposure (4500 Lux), 14 days, open flask
[6] = Light exposure (4500 Lux), 30 days, open flask
[7] = long-term accelerated conditions for 6 months

Compound | 0.0% RH-80.0% RH (hygroscopicity, mass change) [1] | Crystal form [1] | physical stability [2] | Purity% ([2]; 40 °C, 7 days, open flask) | chemical stability [2] | Purity% ([3]; 25 °C/60% RH, 1 month) | Purity% ([3]; 25 °C/60% RH, 2 months) | Purity% ([3]; 25 °C/60% RH, 3 months) | Purity% ([3]; 25 °C/60% RH, 6 months) | Purity% ([3]; 25 °C/60% RH, 14 days) | Purity% ([3]; 25 °C/60% RH, Initial) | Crystal form ([3]; 25 °C/60% RH) | Purity% ([3]; 40 °C/75% RH, 1 month) | Purity% ([3]; 40 °C/75% RH, 2 months) | Purity% ([3]; 40 °C/75% RH, 3 months) | Purity% ([3]; 40 °C/75% RH, 6 months) | Purity% ([3]; 40 °C/75% RH, 14 days) | Purity% ([3]; 40 °C/75% RH, Initial) | Crystal form ([3]; 40 °C/75% RH) | physical stability and chemical stability [3, 7] | further results
C[C@H]1COc2c(-c3nc(N[C@@H]4CCOC[C@H]4O)ncc3Cl)cc(F)c3nc(C(C)(C)O)n1c23 [Crystal form E, (3S,4R)-4-((5-chloro-4-((S)-8-fluoro-2-(2-hydroxypropan-2-yl)-3-methyl-3,4-dihydro-5-oxa-1,2a-diazaacenaphthylen-6-yl)pyrimidin-2-yl)amino)tetrahydro-2H-pyran-3-ol] | 3.45% | No change | good physical stability | 99.9% | good chemical stability | 99.9% | 99.9% | 99.9% | 99.9% | 99.9% | 99.9% | No change | 99.9% | 99.9% | 99.9% | 99.9% | 99.9% | 99.9% | No change | good physical stability and chemical stability | Purity% ([2]; 40 °C, 14 days, open flask): 99.8%; Purity% ([2]; 40 °C, 30 days, open flask): 99.8%; Purity% ([2]; 60 °C, 7 days, open flask): 99.9%; Purity% ([2]; 60 °C, 14 days, open flask): 99.9%; Purity% ([2]; 60 °C, 30 days, open flask): 99.9%; Purity% ([2]; 75% RH, 7 days, open flask): 99.9%; Purity% ([2]; 75% RH, 14 days, open flask): 99.8%; Purity% ([2]; 75% RH, 30 days, open flask): 99.8%; Purity% ([2]; 92.5% RH, 7 days, open flask): 99.9%; Purity% ([2]; 92.5% RH, 14 days, open flask): 99.8%; Purity% ([2]; 92.5% RH, 30 days, open flask): 99.8%; Purity% ([2]; Initial, 0 days): 99.9%; Purity% [2, 4]: 99.6%; Purity% [2, 5]: 99.3%; Purity% [2, 6]: 98.7%
C[C@H]1COc2c(-c3nc(N[C@@H]4CCOC[C@H]4O)ncc3Cl)cc(F)c3nc(C(C)(C)O)n1c23 [Crystal form D, (3S,4R)-4-((5-chloro-4-((S)-8-fluoro-2-(2-hydroxypropan-2-yl)-3-methyl-3,4-dihydro-5-oxa-1,2a-diazaacenaphthylen-6-yl)pyrimidin-2-yl)amino)tetrahydro-2H-pyran-3-ol] | 0.46% | No change | good physical stability | 99.9% | good chemical stability | 99.9% | 99.9% | 99.9% | 99.9% | 99.9% | 99.9% | No change | 99.9% | 99.9% | 99.9% | 99.9% | 99.9% | 99.9% | No change | good physical stability and chemical stability | Purity% ([2]; 40 °C, 14 days, open flask): 99.9%; Purity% ([2]; 40 °C, 30 days, open flask): 99.9%; Purity% ([2]; 60 °C, 7 days, open flask): 99.9%; Purity% ([2]; 60 °C, 14 days, open flask): 99.9%; Purity% ([2]; 60 °C, 30 days, open flask): 99.9%; Purity% ([2]; 75% RH, 7 days, open flask): 99.9%; Purity% ([2]; 75% RH, 14 days, open flask): 99.9%; Purity% ([2]; 75% RH, 30 days, open flask): 99.9%; Purity% ([2]; 92.5% RH, 7 days, open flask): 99.9%; Purity% ([2]; 92.5% RH, 14 days, open flask): 99.9%; Purity% ([2]; 92.5% RH, 30 days, open flask): 99.9%; Purity% ([2]; Initial, 0 days): 99.9%; Purity% [2, 4]: 96.0%; Purity% [2, 5]: 94.6%; Purity% [2, 6]: 92.8%
C[C@H]1COc2c(-c3nc(N[C@@H]4CCOC[C@H]4O)ncc3Cl)cc(F)c3nc(C(C)(C)O)n1c23 [Crystal form F, (3S,4R)-4-((5-chloro-4-((S)-8-fluoro-2-(2-hydroxypropan-2-yl)-3-methyl-3,4-dihydro-5-oxa-1,2a-diazaacenaphthylen-6-yl)pyrimidin-2-yl)amino)tetrahydro-2H-pyran-3-ol] | 1.10% | No change | good physical stability | – | good chemical stability | 99.9% | 99.9% | 99.9% | 99.9% | 99.9% | 99.9% | No change | 99.9% | 99.9% | 99.9% | 99.9% | 99.9% | 99.9% | No change | good physical stability and chemical stability | –
C[C@H]1COc2c(-c3nc(N[C@@H]4CCOC[C@H]4O)ncc3Cl)cc(F)c3nc(C(C)(C)O)n1c23 [Free-state amorphous form, (3S,4R)-4-((5-chloro-4-((S)-8-fluoro-2-(2-hydroxypropan-2-yl)-3-methyl-3,4-dihydro-5-oxa-1,2a-diazaacenaphthylen-6-yl)pyrimidin-2-yl)amino)tetrahydro-2H-pyran-3-ol] | – | – | good physical stability | – | good chemical stability | 99.0% | 98.9% | – | 98.8% | 99.0% | 99.0% | No change | 99.0% | 98.9% | – | 98.8% | 99.0% | 99.0% | Deliquescence | – | Crystal form ([2]; 40 °C, 7 days, open flask): No change; Crystal form ([2]; 40 °C, 14 days, open flask): No change; Crystal form ([2]; 40 °C, 30 days, open flask): No change; Crystal form ([2]; 60 °C, 7 days, open flask): No change; Crystal form ([2]; 60 °C, 14 days, open flask): No change; Crystal form ([2]; 60 °C, 30 days, open flask): No change; Crystal form ([2]; 75% RH, 7 days, open flask): No change; Crystal form ([2]; 75% RH, 14 days, open flask): No change; Crystal form ([2]; 75% RH, 30 days, open flask): No change; Crystal form ([2]; 92.5% RH, 7 days, open flask): No change; Crystal form ([2]; 92.5% RH, 14 days, open flask): No change; Crystal form ([2]; 92.5% RH, 30 days, open flask): No change; Crystal form ([2]; Initial, 0 days): Free-state amorphous form; Crystal form [2, 4]: No change; Crystal form [2, 5]: No change; Crystal form [2, 6]: No change; deliquescence ([3]; accelerated conditions): deliquescence; physical stability and chemical stability ([3]; under other conditions (than those giving deliquescence)): good physical stability and chemical stability
